Measured values: PubChem BioAssay AID1963958 (Molecular Pharmacology Branch, DTP, NCI, 2024)

System: MDA-MB-231 multicell spheroids, viability
Assay: Anticancer human tumor MDA-MB-231 cell line growth inhibition [PI3K];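 further: spheroids exposed to agents for seven days before reading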;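 on viability, T/C: percent of vehicle control luminescence with DMSO treated spheroids as 100%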
Conditions: for IC50: curve of first compound; for viability, T/C: stronger effect = lower value
Description: Combinatorial screen of targeted agents with the PI3K inhibitors inavolisib, alpelisib, duvelisib, and copanlisib in multi-cell type tumor spheroids
A high-throughput screen of multi-cell type tumor spheroids was designed to identify active combinations of targeted small molecules and PI3K pathway inhibitors. Complex spheroids include a stromal component modeled by human endothelial cells (HUVEC) and fibroblasts modeled by human mesenchymal stem cells (MSCs). The concentration ranges selected for each drug and investigational agent were based upon clinically achievable concentrations if the clinical Cmax of the agent was known.
Compounds. The drugs and investigational agents: inavolisib (NSC800729), alpelisib (NSC765974), duvelisib (NSC772469), copanlisib (NSC816437), ipatasertib (NSC767898), afuresertib (NSC778305), talazoparib (NSC767125), sapanisertib (NSC764658), selumetinib (NSC741078), tovorafenib (DAY101, NSC766906), vemurafenib (NSC761431), ravoxertinib (NSC781343), sotorasib (NSC818433), MRTX1133 (NSC 836407), abemaciclib (NSC 768073), palbociclib (NSC758247), venetoclax (NSC 766270), SY5609 (NSC837396), enzalutamide (NSC755605), and darolutamide (NSC825331), were obtained from the National Cancer Institute (NCI) Developmental Therapeutics Program Chemical Repository. The FDA-approved anticancer drug set is available from the NCI Developmental Therapeutics Program. […] The stock solutions were prepared in dimethyl sulfoxide (DMSO, Sigma-Aldrich, St. Louis, MO, cat. D2650) at 800-fold the tested concentration and stored at -70 degrees C prior to their use. All drugs and investigational agents were tested over a range starting from a high concentration at or near the clinical Cmax and decreasing in half-log increments. If the clinical Cmax for an agent had not been determined, the highest concentration tested was 10 microM.
Cell Culture. All cells were maintained in an incubator at 37 degrees C and 5% CO2 with 95% humidity. The PDC lines were cultured according to standard operating procedures established by the NCI PDMR (https://pdmr.cancer.gov/sops/default.htm). All PDCs were thawed and cultured in Matrigel-coated flasks prepared with a working solution of 1X Ham's F-12 nutrient mix, without supplementation (Invitrogen, Waltham, MA, cat. 11765054), 100 U/mL penicillin-streptomycin (Invitrogen, cat. 15140122), and 2.5% Matrigel (Corning Inc., Corning, NY, cat. 354248) for the first three passages. The 354836-022-R-J1-PDC, 475296-252-R-J1-PDC, and 997726-040-R-J2-PDC lines were cultured in 6A media, which includes advanced DMEM/F-12 (Thermo Fisher Scientific, cat. 12634028), 10 mM HEPES (Thermo Fisher Scientific, cat. 15630080), 1X GlutaMAX supplement (Thermo Fisher Scientific, cat. 35050061), 0.1 mg/mL primocin (InvivoGen, San Diego, CA, cat. ant-pm-2), 10% defined fetal bovine serum, heat inactivated (HyClone Laboratories Inc., Logan, UT, cat. SH30070.03HI), 50% L-WRN conditioned media (ATCC, cat. CRL-3276), 1.25 mM N-Acetyl-L-cysteine (Sigma-Aldrich, cat. A9165), 10 mM nicotinamide (Sigma-Aldrich, cat. N0636), 1X B-27 supplement (Thermo Fisher Scientific, cat. 17504044), 1X N-2 supplement (Thermo Fisher Scientific, cat. 17502048), and 10 microM Y-27632 dihydrochloride (Tocris Bioscience, Bristol, United Kingdom, cat. 1254). The 624824-186-R-J2-PDC line was cultured in 6C/Colon 1B media, which includes all 6A media components plus 50 ng/mL human EGF recombinant protein (Thermo Fisher Scientific, cat. PHG0311). […]

[1] = second compound 0.00316 µM, first compound 0.0316 µM
[2] = second compound 0.00316 µM, first compound 0.1 µM
[3] = second compound 0.01 µM, first compound 0.0316 µM
[4] = second compound 0.01 µM, first compound 0.1 µM
[5] = second compound 0.0316 µM, first compound 0.0316 µM
[6] = second compound 0.0316 µM, first compound 0.1 µM
[7] = second compound 0.1 µM, first compound 0.0316 µM
[8] = second compound 0.1 µM, first compound 0.1 µM
[9] = second compound 0.316 µM, first compound 0.0316 µM
[10] = second compound 0.316 µM, first compound 0.1 µM
[11] = second compound 1 µM, first compound 0.0316 µM
[12] = second compound 1 µM, first compound 0.1 µM

CC(C)n1nc(-c2ccc3oc(N)nc3c2)c2c(N)ncnc21 + CC(Nc1ccc2c(c1)OCCn1cc(N3C(=O)OCC3C(F)F)nc1-2)C(N)=O
IC50 (second compound 0.00316 µM): 34.9 nM | IC50 (second compound 0.01 µM): 27.5 nM | IC50 (second compound 0.0316 µM): 12.8 nM | IC50 (second compound 0.1 µM): 5.12 nM | IC50 (second compound 0.316 µM): 3.46 nM | IC50 (second compound 1 µM): 2.13 nM | viability, T/C (second compound 0.00316 µM, first compound 0.000316 µM): 101% | viability, T/C (second compound 0.00316 µM, first compound 0.001 µM): 92.6% | viability, T/C (second compound 0.00316 µM, first compound 0.00316 µM): 94.5% | viability, T/C (second compound 0.00316 µM, first compound 0.01 µM): 77.4% | viability, T/C [1]: 51.8% | viability, T/C [2]: 31.5% | viability, T/C (second compound 0.01 µM, first compound 0.000316 µM): 89.1% | viability, T/C (second compound 0.01 µM, first compound 0.001 µM): 93.7% | viability, T/C (second compound 0.01 µM, first compound 0.00316 µM): 89% | viability, T/C (second compound 0.01 µM, first compound 0.01 µM): 66% | viability, T/C [3]: 50% | viability, T/C [4]: 30.5% | viability, T/C (second compound 0.0316 µM, first compound 0.000316 µM): 81% | viability, T/C (second compound 0.0316 µM, first compound 0.001 µM): 74.6% | viability, T/C (second compound 0.0316 µM, first compound 0.00316 µM): 65.4% | viability, T/C (second compound 0.0316 µM, first compound 0.01 µM): 54.2% | viability, T/C [5]: 37.7% | viability, T/C [6]: 25.5% | viability, T/C (second compound 0.1 µM, first compound 0.000316 µM): 68.6% | viability, T/C (second compound 0.1 µM, first compound 0.001 µM): 63% | viability, T/C (second compound 0.1 µM, first compound 0.00316 µM): 55.2% | viability, T/C (second compound 0.1 µM, first compound 0.01 µM): 42.7% | viability, T/C [7]: 33.2% | viability, T/C [8]: 21.3% | viability, T/C (second compound 0.316 µM, first compound 0.000316 µM): 65.3% | viability, T/C (second compound 0.316 µM, first compound 0.001 µM): 60.2% | viability, T/C (second compound 0.316 µM, first compound 0.00316 µM): 49.5% | viability, T/C (second compound 0.316 µM, first compound 0.01 µM): 41.7% | viability, T/C [9]: 28.5% | viability, T/C [10]: 19.9% | viability, T/C (second compound 1 µM, first compound 0.000316 µM): 58.8% | viability, T/C (second compound 1 µM, first compound 0.001 µM): 54.7% | viability, T/C (second compound 1 µM, first compound 0.00316 µM): 48.3% | viability, T/C (second compound 1 µM, first compound 0.01 µM): 36.6% | viability, T/C [11]: 27.9% | viability, T/C [12]: 17.3%

CCCS(=O)(=O)Nc1ccc(F)c(C(=O)c2c[nH]c3ncc(-c4ccc(Cl)cc4)cc23)c1F + CC(Nc1ccc2c(c1)OCCn1cc(N3C(=O)OCC3C(F)F)nc1-2)C(N)=O
IC50 (second compound 0.00316 µM): 4510 nM | IC50 (second compound 0.01 µM): 3620 nM | IC50 (second compound 0.0316 µM): 2440 nM | IC50 (second compound 0.1 µM): 1870 nM | IC50 (second compound 0.316 µM): 1240 nM | IC50 (second compound 1 µM): 1090 nM | viability, T/C [1]: 98.5% | viability, T/C [2]: 94.9% | viability, T/C (second compound 0.00316 µM, first compound 0.316 µM): 100% | viability, T/C (second compound 0.00316 µM, first compound 1 µM): 86.9% | viability, T/C (second compound 0.00316 µM, first compound 3.16 µM): 59.2% | viability, T/C (second compound 0.00316 µM, first compound 10 µM): 29.9% | viability, T/C [3]: 98.3% | viability, T/C [4]: 102% | viability, T/C (second compound 0.01 µM, first compound 0.316 µM): 93.3% | viability, T/C (second compound 0.01 µM, first compound 1 µM): 80.3% | viability, T/C (second compound 0.01 µM, first compound 3.16 µM): 52.8% | viability, T/C (second compound 0.01 µM, first compound 10 µM): 29.5% | viability, T/C [5]: 80.5% | viability, T/C [6]: 81.6% | viability, T/C (second compound 0.0316 µM, first compound 0.316 µM): 79.9% | viability, T/C (second compound 0.0316 µM, first compound 1 µM): 66.3% | viability, T/C (second compound 0.0316 µM, first compound 3.16 µM): 45.5% | viability, T/C (second compound 0.0316 µM, first compound 10 µM): 26.6% | viability, T/C [7]: 80.8% | viability, T/C [8]: 71.4% | viability, T/C (second compound 0.1 µM, first compound 0.316 µM): 68.6% | viability, T/C (second compound 0.1 µM, first compound 1 µM): 61.4% | viability, T/C (second compound 0.1 µM, first compound 3.16 µM): 41% | viability, T/C (second compound 0.1 µM, first compound 10 µM): 23.9% | viability, T/C [9]: 72% | viability, T/C [10]: 68.4% | viability, T/C (second compound 0.316 µM, first compound 0.316 µM): 61.7% | viability, T/C (second compound 0.316 µM, first compound 1 µM): 54.7% | viability, T/C (second compound 0.316 µM, first compound 3.16 µM): 36.7% | viability, T/C (second compound 0.316 µM, first compound 10 µM): 21.7% | viability, T/C [11]: 65.4% | viability, T/C [12]: 63.4% | viability, T/C (second compound 1 µM, first compound 0.316 µM): 59.8% | viability, T/C (second compound 1 µM, first compound 1 µM): 51% | viability, T/C (second compound 1 µM, first compound 3.16 µM): 36.9% | viability, T/C (second compound 1 µM, first compound 10 µM): 21.4%
